{
  "source": "patent US20100305098A1",
  "about": "“METHODS OF USE” (priority 2007, published 2010)",
  "key": {"[1]": {"target": "T1, Leukotriene, Cysteinyl CysLT2 (Homo sapiens, UniProt Q9NS75)", "T1 construct": "purchased MDS Pharma (outsourced assay)", "T1 sequence (Q9NS75 whole entry)": "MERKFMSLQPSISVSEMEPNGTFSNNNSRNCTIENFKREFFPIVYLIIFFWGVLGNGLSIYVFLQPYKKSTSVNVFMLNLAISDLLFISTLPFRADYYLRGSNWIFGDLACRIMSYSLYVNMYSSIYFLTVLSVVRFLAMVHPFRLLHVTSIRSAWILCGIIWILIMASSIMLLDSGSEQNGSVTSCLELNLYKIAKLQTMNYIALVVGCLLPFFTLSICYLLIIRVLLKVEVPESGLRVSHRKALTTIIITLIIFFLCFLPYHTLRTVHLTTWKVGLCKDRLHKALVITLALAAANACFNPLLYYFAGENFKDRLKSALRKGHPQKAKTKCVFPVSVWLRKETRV", "experiment": "Competitive radioligand binding (MDS Pharma)"}, "[2]": {"target": "T2, Prostanoid DP (Homo sapiens, UniProt Q13258)", "T2 construct": "purchased MDS Pharma (outsourced assay)", "T2 sequence (Q13258 whole entry)": "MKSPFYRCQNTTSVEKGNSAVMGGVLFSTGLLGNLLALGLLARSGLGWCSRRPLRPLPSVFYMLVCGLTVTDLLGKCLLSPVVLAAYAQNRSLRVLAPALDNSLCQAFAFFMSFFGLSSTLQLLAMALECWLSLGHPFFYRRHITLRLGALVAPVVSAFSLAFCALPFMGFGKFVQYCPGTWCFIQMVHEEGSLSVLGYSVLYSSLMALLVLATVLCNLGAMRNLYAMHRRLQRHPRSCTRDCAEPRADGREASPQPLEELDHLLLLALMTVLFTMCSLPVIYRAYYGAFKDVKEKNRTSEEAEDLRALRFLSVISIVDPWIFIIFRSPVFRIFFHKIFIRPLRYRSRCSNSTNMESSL", "experiment": "Competitive radioligand binding (MDS Pharma)"}, "[3]": {"target": "T3, Prostanoid, Thromboxane A2 (TP) (Homo sapiens, UniProt P21731)", "T3 construct": "purchased MDS Pharma (outsourced assay)", "T3 sequence (P21731 whole entry)": "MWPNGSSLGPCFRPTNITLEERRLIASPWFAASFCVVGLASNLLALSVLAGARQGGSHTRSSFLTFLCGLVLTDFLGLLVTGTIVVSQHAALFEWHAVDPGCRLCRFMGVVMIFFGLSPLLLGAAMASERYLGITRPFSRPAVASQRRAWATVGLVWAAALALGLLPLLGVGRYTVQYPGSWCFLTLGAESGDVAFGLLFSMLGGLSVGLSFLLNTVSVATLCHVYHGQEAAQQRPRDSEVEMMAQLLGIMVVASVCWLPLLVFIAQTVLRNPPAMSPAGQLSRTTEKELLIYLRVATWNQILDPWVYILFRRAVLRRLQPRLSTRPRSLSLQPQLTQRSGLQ", "experiment": "Competitive radioligand binding (MDS Pharma)"}, "[4]": {"target": "T4, 5-HT2A (Homo sapiens, UniProt P28223)", "T4 construct": "purchased Millipore (outsourced screen)", "experiment": "FLIPR functional screen", "assay_type": "cell-based", "conditions": "antagonist mode"}, "[5]": {"target": "T5, 5-HT2B (Homo sapiens, UniProt P41595)", "T5 construct": "purchased Millipore (outsourced screen)", "T5 sequence (P41595 whole entry)": "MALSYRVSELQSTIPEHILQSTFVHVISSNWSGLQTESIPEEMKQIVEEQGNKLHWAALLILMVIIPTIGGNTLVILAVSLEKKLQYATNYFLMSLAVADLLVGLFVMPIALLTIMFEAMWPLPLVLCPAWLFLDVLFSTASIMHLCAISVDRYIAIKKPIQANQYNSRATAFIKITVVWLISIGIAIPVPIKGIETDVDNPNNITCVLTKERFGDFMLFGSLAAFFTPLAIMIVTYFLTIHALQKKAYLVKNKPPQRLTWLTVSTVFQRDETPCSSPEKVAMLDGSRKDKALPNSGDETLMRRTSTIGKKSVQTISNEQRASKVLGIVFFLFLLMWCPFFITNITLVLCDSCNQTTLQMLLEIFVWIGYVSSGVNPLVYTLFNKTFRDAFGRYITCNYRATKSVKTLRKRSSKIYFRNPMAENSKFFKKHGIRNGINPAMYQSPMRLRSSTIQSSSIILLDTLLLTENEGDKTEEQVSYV", "experiment": "FLIPR functional screen", "assay_type": "cell-based", "conditions": "antagonist mode"}, "[6]": {"target": "T6, ADRA1A (Homo sapiens, UniProt P35348)", "T6 construct": "purchased Millipore (outsourced screen)", "experiment": "FLIPR functional screen", "assay_type": "cell-based", "conditions": "antagonist mode"}, "[7]": {"target": "T7, ADRA2A (Homo sapiens, UniProt P08913)", "T7 construct": "purchased Millipore (outsourced screen)", "experiment": "FLIPR functional screen", "assay_type": "cell-based", "conditions": "antagonist mode"}, "[8]": {"target": "T8, BB2 (Homo sapiens, UniProt P30550)", "T8 construct": "Millipore", "experiment": "FLIPR functional screen", "assay_type": "cell-based", "conditions": "antagonist mode"}, "[9]": {"target": "T9, CAS (Homo sapiens, UniProt P41180)", "T9 construct": "Millipore", "experiment": "FLIPR functional screen", "assay_type": "cell-based", "conditions": "antagonist mode"}, "[10]": {"target": "T10, CCR9 (Homo sapiens, UniProt P51686)", "T10 construct": "Millipore", "experiment": "FLIPR functional screen", "assay_type": "cell-based", "conditions": "antagonist mode"}, "[11]": {"target": "T11, CXCR1 (Homo sapiens, UniProt P25024)", "T11 construct": "Millipore", "T11 sequence (P25024 whole entry, species assumed)": "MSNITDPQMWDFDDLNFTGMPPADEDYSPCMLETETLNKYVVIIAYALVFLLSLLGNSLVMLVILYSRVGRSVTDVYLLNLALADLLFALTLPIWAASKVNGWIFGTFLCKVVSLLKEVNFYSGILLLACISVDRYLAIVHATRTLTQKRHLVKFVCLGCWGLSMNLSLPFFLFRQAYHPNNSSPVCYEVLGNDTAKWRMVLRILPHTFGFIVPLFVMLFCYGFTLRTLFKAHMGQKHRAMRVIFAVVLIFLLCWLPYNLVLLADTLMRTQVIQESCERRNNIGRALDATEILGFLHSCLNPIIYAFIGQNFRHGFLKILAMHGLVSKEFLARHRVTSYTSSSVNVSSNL", "experiment": "FLIPR functional screen", "assay_type": "cell-based", "conditions": "antagonist mode"}, "[12]": {"target": "T12, D1 (Homo sapiens, UniProt P21728)", "T12 construct": "Millipore", "experiment": "FLIPR functional screen", "assay_type": "cell-based", "conditions": "antagonist mode"}, "[13]": {"target": "T13, FPR1 (Homo sapiens, UniProt P21462)", "T13 construct": "Millipore", "T13 sequence (P21462 whole entry, species assumed)": "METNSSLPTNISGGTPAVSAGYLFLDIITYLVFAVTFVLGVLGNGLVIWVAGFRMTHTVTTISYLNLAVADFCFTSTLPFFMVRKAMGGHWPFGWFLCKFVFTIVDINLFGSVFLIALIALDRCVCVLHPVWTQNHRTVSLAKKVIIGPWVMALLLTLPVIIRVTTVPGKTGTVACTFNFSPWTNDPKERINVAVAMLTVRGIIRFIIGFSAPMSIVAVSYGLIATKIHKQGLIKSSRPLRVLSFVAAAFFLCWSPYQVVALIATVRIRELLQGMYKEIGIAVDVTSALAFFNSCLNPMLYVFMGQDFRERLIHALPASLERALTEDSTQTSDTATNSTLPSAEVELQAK", "experiment": "FLIPR functional screen", "assay_type": "cell-based", "conditions": "antagonist mode"}, "[14]": {"target": "T14, FPR2 (Homo sapiens, UniProt P25090)", "T14 construct": "Millipore", "experiment": "FLIPR functional screen", "assay_type": "cell-based", "conditions": "antagonist mode"}, "[15]": {"target": "T15, GABA (Homo sapiens, UniProt Q9UBS5)", "T15 construct": "Millipore", "experiment": "FLIPR functional screen", "assay_type": "cell-based", "conditions": "antagonist mode"}, "[16]": {"target": "T16, GAL1 (Homo sapiens, UniProt P47211)", "T16 construct": "Millipore", "experiment": "FLIPR functional screen", "assay_type": "cell-based", "conditions": "antagonist mode"}, "[17]": {"target": "T17, GCGR (Homo sapiens, UniProt P47871)", "T17 construct": "Millipore", "experiment": "FLIPR functional screen", "assay_type": "cell-based", "conditions": "antagonist mode"}, "[18]": {"target": "T18, GPR43 (Homo sapiens, UniProt O15552)", "T18 construct": "Millipore", "experiment": "FLIPR functional screen", "assay_type": "cell-based", "conditions": "antagonist mode"}, "[19]": {"target": "T19, GPR54 (Homo sapiens, UniProt Q969F8)", "T19 construct": "Millipore", "T19 sequence (Q969F8 whole entry, species assumed)": "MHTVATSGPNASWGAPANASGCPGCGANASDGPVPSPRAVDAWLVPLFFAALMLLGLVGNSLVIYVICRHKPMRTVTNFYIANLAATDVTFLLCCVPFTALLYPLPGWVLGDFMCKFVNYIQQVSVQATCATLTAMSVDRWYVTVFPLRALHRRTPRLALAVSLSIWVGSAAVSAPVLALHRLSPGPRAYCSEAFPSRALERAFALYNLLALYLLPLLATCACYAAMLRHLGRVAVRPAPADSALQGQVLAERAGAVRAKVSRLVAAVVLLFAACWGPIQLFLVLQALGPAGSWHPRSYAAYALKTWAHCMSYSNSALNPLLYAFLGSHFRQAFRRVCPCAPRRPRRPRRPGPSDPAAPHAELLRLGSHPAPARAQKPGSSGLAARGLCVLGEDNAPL", "experiment": "FLIPR functional screen", "assay_type": "cell-based", "conditions": "antagonist mode"}, "[20]": {"target": "T20, H1 (Homo sapiens, UniProt P35367)", "T20 construct": "Millipore", "T20 sequence (P35367 whole entry)": "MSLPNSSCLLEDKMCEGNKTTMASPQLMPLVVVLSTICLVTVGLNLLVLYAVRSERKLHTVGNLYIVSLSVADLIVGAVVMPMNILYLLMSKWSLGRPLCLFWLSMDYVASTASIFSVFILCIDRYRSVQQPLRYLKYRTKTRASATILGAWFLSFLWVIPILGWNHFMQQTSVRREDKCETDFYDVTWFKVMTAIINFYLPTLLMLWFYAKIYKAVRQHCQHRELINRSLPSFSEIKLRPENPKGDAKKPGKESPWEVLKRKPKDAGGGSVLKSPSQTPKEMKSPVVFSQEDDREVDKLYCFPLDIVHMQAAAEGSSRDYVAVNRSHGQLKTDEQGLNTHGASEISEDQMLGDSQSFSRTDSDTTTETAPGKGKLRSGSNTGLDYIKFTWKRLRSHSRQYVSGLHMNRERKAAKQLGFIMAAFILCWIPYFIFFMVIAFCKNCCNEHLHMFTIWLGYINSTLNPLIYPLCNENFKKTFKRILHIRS", "experiment": "FLIPR functional screen", "assay_type": "cell-based", "conditions": "antagonist mode"}, "[21]": {"target": "T21, IP1 (Homo sapiens, UniProt P43119)", "T21 construct": "Millipore", "experiment": "FLIPR functional screen", "assay_type": "cell-based", "conditions": "antagonist mode"}, "[22]": {"target": "T22, LPA1 (Homo sapiens, UniProt Q92633)", "T22 construct": "Millipore", "experiment": "FLIPR functional screen", "assay_type": "cell-based", "conditions": "antagonist mode"}, "[23]": {"target": "T23, LPA3 (Homo sapiens, UniProt Q9UBY5)", "T23 construct": "Millipore", "experiment": "FLIPR functional screen", "assay_type": "cell-based", "conditions": "antagonist mode"}, "[24]": {"target": "T24, M3 (Homo sapiens, UniProt P20309)", "T24 construct": "Millipore", "experiment": "FLIPR functional screen", "assay_type": "cell-based", "conditions": "antagonist mode"}, "[25]": {"target": "T25, M4 (Homo sapiens, UniProt P08173)", "T25 construct": "Millipore", "experiment": "FLIPR functional screen", "assay_type": "cell-based", "conditions": "antagonist mode"}, "[26]": {"target": "T26, MC4 (Homo sapiens, UniProt P32245)", "T26 construct": "Millipore", "experiment": "FLIPR functional screen", "assay_type": "cell-based", "conditions": "antagonist mode"}, "[27]": {"target": "T27, NK3 (Homo sapiens, UniProt P29371)", "T27 construct": "Millipore", "experiment": "FLIPR functional screen", "assay_type": "cell-based", "conditions": "antagonist mode"}, "[28]": {"target": "T28, OPRM1 (Homo sapiens, UniProt P35372)", "T28 construct": "Millipore", "experiment": "FLIPR functional screen", "assay_type": "cell-based", "conditions": "antagonist mode"}, "[29]": {"target": "T29, OX1 (Homo sapiens, UniProt O43613)", "T29 construct": "Millipore", "experiment": "FLIPR functional screen", "assay_type": "cell-based", "conditions": "antagonist mode"}, "[30]": {"target": "T30, OX2 (Homo sapiens, UniProt O43614)", "T30 construct": "Millipore", "experiment": "FLIPR functional screen", "assay_type": "cell-based", "conditions": "antagonist mode"}, "[31]": {"target": "T31, PAC1 (Homo sapiens, UniProt P41586)", "T31 construct": "Millipore", "experiment": "FLIPR functional screen", "assay_type": "cell-based", "conditions": "antagonist mode"}, "[32]": {"target": "T32, PAR2 (Homo sapiens, UniProt P55085)", "T32 construct": "Millipore", "T32 sequence (P55085 26-397)": "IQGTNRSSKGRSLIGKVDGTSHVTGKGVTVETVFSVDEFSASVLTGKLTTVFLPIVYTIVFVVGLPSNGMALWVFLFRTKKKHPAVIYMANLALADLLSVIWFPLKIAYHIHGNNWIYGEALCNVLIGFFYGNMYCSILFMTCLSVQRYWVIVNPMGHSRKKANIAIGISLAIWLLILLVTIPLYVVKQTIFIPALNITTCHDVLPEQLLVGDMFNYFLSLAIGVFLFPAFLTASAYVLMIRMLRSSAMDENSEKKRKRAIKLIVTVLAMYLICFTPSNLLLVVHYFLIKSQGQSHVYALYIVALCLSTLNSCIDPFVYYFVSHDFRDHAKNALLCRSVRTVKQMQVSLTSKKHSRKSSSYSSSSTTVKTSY", "experiment": "FLIPR functional screen", "assay_type": "cell-based", "conditions": "antagonist mode"}, "[33]": {"target": "T33, PRP (Homo sapiens, UniProt P49683)", "T33 construct": "Millipore", "experiment": "FLIPR functional screen", "assay_type": "cell-based", "conditions": "antagonist mode"}, "[34]": {"target": "T34, PTH2 (Homo sapiens, UniProt P49190)", "T34 construct": "Millipore", "experiment": "FLIPR functional screen", "assay_type": "cell-based", "conditions": "antagonist mode"}, "[35]": {"target": "T35, S1P2 (Homo sapiens, UniProt O95136)", "T35 construct": "Millipore", "experiment": "FLIPR functional screen", "assay_type": "cell-based", "conditions": "antagonist mode"}, "[36]": {"target": "T36, SST4 (Homo sapiens, UniProt P31391)", "T36 construct": "Millipore", "T36 sequence (P31391 whole entry, species assumed)": "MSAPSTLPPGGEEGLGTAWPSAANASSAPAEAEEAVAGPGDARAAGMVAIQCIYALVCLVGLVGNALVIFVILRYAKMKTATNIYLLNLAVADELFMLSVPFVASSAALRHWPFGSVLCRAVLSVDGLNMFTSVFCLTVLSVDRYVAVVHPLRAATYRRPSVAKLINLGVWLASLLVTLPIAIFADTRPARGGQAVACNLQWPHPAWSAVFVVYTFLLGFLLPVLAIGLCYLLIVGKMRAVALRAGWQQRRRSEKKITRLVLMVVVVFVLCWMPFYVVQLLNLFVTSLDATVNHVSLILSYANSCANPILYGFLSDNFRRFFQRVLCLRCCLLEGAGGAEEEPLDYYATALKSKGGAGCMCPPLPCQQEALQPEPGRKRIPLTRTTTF", "experiment": "FLIPR functional screen", "assay_type": "cell-based", "conditions": "antagonist mode"}, "[37]": {"target": "T37, TRH (Homo sapiens, UniProt P34981)", "T37 construct": "Millipore", "experiment": "FLIPR functional screen", "assay_type": "cell-based", "conditions": "antagonist mode"}, "[38]": {"target": "T38, V1A (Homo sapiens, UniProt P37288)", "T38 construct": "Millipore", "T38 sequence (P37288 whole entry)": "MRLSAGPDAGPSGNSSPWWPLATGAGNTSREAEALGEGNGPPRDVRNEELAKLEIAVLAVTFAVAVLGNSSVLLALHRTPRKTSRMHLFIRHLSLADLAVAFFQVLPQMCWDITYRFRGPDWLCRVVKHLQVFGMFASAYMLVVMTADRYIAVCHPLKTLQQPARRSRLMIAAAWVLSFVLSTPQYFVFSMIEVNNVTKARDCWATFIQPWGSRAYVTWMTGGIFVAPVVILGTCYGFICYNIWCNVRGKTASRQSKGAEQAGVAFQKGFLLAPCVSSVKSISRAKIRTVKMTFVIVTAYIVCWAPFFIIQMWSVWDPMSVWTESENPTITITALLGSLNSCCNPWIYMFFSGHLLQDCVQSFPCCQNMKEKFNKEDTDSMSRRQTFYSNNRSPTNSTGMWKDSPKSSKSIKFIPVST", "experiment": "FLIPR functional screen", "assay_type": "cell-based", "conditions": "antagonist mode"}, "[39]": {"target": "T39, V2 (Homo sapiens, UniProt P30518)", "T39 construct": "Millipore", "experiment": "FLIPR functional screen", "assay_type": "cell-based", "conditions": "antagonist mode"}, "[40]": {"target": "T40, Y1 (Homo sapiens, UniProt P25929)", "T40 construct": "Millipore", "T40 sequence (P25929 whole entry)": "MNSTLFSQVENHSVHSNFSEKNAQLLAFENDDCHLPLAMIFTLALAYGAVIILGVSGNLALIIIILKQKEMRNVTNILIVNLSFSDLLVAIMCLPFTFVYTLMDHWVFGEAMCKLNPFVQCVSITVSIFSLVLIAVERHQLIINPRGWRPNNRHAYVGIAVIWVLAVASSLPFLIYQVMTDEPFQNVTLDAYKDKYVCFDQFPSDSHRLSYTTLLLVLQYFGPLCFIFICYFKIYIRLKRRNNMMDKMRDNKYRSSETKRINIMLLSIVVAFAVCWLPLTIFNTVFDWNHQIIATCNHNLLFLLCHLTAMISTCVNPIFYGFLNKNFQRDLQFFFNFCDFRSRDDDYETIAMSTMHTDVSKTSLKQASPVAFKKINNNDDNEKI", "experiment": "FLIPR functional screen", "assay_type": "cell-based", "conditions": "antagonist mode"}},
  "data": [
    {"compound": "CCN1C(=O)N2Cc3cc(OC)cc(OC)c3[C@@H](C)C=C2C12CCN(Cc1cccn1C)CC2", "note": "[ER-819924-01]", "values": [
      {"measurement": "% INHIBITION", "setting": "[1]; CONC. 0.1 μm", "value": 3, "unit": "%"},
      {"measurement": "% INHIBITION", "setting": "[1]; CONC. 1 μm", "value": 0, "unit": "%"},
      {"measurement": "% INHIBITION", "setting": "[2]; CONC. 0.1 μm", "value": 0, "unit": "%"},
      {"measurement": "% INHIBITION", "setting": "[2]; CONC. 1 μm", "value": 13, "unit": "%"},
      {"measurement": "% INHIBITION", "setting": "[3]; CONC. 0.1 μm", "value": "−3", "unit": "%"},
      {"measurement": "% INHIBITION", "setting": "[3]; CONC. 1 μm", "value": "−14", "unit": "%"},
      {"measurement": "inhibition at 1 µM", "setting": "[4]", "value": 8.8, "unit": "%"},
      {"measurement": "inhibition at 1 µM", "setting": "[5]", "value": 11.3, "unit": "%"},
      {"measurement": "inhibition at 1 µM", "setting": "[6]", "value": 17.6, "unit": "%"},
      {"measurement": "inhibition at 1 µM", "setting": "[7]", "value": 3.3, "unit": "%"},
      {"measurement": "inhibition at 1 µM", "setting": "[8]", "value": 0.6, "unit": "%"},
      {"measurement": "inhibition at 1 µM", "setting": "[9]", "value": 7.2, "unit": "%"},
      {"measurement": "inhibition at 1 µM", "setting": "[10]", "value": -9.1, "unit": "%"},
      {"measurement": "inhibition at 1 µM", "setting": "[11]", "value": 3.9, "unit": "%"},
      {"measurement": "inhibition at 1 µM", "setting": "[12]", "value": 14, "unit": "%"},
      {"measurement": "inhibition at 1 µM", "setting": "[13]", "value": 8, "unit": "%"},
      {"measurement": "inhibition at 1 µM", "setting": "[14]", "value": 6.9, "unit": "%"},
      {"measurement": "inhibition at 1 µM", "setting": "[15]", "value": 6, "unit": "%"},
      {"measurement": "inhibition at 1 µM", "setting": "[16]", "value": 9.1, "unit": "%"},
      {"measurement": "inhibition at 1 µM", "setting": "[17]", "value": 8.6, "unit": "%"},
      {"measurement": "inhibition at 1 µM", "setting": "[18]", "value": 10.6, "unit": "%"},
      {"measurement": "inhibition at 1 µM", "setting": "[19]", "value": -0.4, "unit": "%"},
      {"measurement": "inhibition at 1 µM", "setting": "[20]", "value": -39.3, "unit": "%"},
      {"measurement": "inhibition at 1 µM", "setting": "[21]", "value": 9.8, "unit": "%"},
      {"measurement": "inhibition at 1 µM", "setting": "[22]", "value": 8, "unit": "%"},
      {"measurement": "inhibition at 1 µM", "setting": "[23]", "value": 9.6, "unit": "%"},
      {"measurement": "inhibition at 1 µM", "setting": "[24]", "value": 8.9, "unit": "%"},
      {"measurement": "inhibition at 1 µM", "setting": "[25]", "value": 10.5, "unit": "%"},
      {"measurement": "inhibition at 1 µM", "setting": "[26]", "value": -5.1, "unit": "%"},
      {"measurement": "inhibition at 1 µM", "setting": "[27]", "value": -2.2, "unit": "%"},
      {"measurement": "inhibition at 1 µM", "setting": "[28]", "value": 35, "unit": "%"},
      {"measurement": "inhibition at 1 µM", "setting": "[29]", "value": 0.7, "unit": "%"},
      {"measurement": "inhibition at 1 µM", "setting": "[30]", "value": 8.8, "unit": "%"},
      {"measurement": "inhibition at 1 µM", "setting": "[31]", "value": 4.1, "unit": "%"},
      {"measurement": "inhibition at 1 µM", "setting": "[32]", "value": -0.8, "unit": "%"},
      {"measurement": "inhibition at 1 µM", "setting": "[33]", "value": 5.4, "unit": "%"},
      {"measurement": "inhibition at 1 µM", "setting": "[34]", "value": -6.2, "unit": "%"},
      {"measurement": "inhibition at 1 µM", "setting": "[35]", "value": -0.5, "unit": "%"},
      {"measurement": "inhibition at 1 µM", "setting": "[36]", "value": -2.8, "unit": "%"},
      {"measurement": "inhibition at 1 µM", "setting": "[37]", "value": -11.1, "unit": "%"},
      {"measurement": "inhibition at 1 µM", "setting": "[38]", "value": -3.9, "unit": "%"},
      {"measurement": "inhibition at 1 µM", "setting": "[39]", "value": -24.8, "unit": "%"},
      {"measurement": "inhibition at 1 µM", "setting": "[40]", "value": -22.7, "unit": "%"}
    ]}
  ]
}
